# Measured values published in patent US7728012B2, “Carboxamide compounds and their use as calpain inhibitors” (Abbott GmbH & Co. KG, priority 2006, dated 2010).
# Experiments:
# Format in all cases: biochemical
# [1] = biological target: T1, calpain-I isolated from human erythrocytes (Homo sapiens, UniProt P07384); test: Calpain I kinetic fluorescence enzyme inhibition assay; conditions: apparent Ki from IC50 by Cheng-Prussoff; average of 2 to 4 dose-effect plots
# T1 construct: calpain-I—isolated from human erythrocytes; purchased Calbiochem 208713; host or cells: human erythrocytes (tissue isolate)
# T1 sequence (P07384 1-714): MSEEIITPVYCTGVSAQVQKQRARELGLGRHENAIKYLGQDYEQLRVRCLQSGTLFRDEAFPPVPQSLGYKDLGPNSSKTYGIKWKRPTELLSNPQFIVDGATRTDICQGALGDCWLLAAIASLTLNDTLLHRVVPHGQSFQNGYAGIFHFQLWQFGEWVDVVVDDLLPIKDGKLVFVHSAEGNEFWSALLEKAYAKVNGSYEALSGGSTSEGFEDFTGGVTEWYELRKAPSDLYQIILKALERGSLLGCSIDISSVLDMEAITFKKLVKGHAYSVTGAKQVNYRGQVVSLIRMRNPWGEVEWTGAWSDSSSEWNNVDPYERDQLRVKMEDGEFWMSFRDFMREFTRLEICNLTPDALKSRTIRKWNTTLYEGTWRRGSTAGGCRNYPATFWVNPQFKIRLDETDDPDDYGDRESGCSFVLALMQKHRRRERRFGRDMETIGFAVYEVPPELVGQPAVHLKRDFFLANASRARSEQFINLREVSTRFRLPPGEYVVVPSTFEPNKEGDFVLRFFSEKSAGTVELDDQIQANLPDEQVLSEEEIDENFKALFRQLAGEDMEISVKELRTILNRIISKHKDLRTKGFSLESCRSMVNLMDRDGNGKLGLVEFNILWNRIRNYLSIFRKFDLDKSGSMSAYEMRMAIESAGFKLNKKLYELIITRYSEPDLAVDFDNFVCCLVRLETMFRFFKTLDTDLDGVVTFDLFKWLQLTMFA
# T1 sequence (P04632 1-268 partner): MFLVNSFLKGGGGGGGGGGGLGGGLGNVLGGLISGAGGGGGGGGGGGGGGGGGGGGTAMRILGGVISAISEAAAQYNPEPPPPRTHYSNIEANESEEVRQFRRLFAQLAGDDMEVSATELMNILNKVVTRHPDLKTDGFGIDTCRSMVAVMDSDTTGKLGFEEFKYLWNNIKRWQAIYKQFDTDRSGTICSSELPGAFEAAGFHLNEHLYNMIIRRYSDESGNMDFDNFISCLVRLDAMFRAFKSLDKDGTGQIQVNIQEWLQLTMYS
# [2] = biological target: T2, cathepsin B isolated from human liver (Homo sapiens, UniProt P07858); test: Cathepsin B kinetic fluorescence enzyme inhibition assay; conditions: selectivity ratio versus calpain I
# T2 construct: cathepsin B—isolated from human liver; purchased Calbiochem 219362; host or cells: human liver (tissue isolate)
# Summary of the method: (§1)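 Kinetic fluorescence (ex 390/em 460 nm) at room temperature in 50 mM MES, 2 mM EDTA, 0.05% Brij 35, 2.5 mM L-cysteine, pH 6.0. Cathepsin B (liver, 0.25 nM) with 100 μM Z-Phe-Arg-AMC; cathepsin L (liver, 1 nM) with 2 μM Z-Phe-Arg-AMC; recombinant E. coli cathepsin S (0.5 nM) with 20 μM Z-Val-Val-Arg-AMC. Ki via Cheng-Prusoff.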
# [3] = biological target: T3, cathepsin K activated from recombinant human procathepsin K (Homo sapiens, UniProt P43235); test: Cathepsin K kinetic fluorescence enzyme inhibition assay; conditions: selectivity ratio versus calpain I
# T3 construct: purchased Calbiochem 342001; host or cells: E. coli
# T3 sequence (P43235 115-329): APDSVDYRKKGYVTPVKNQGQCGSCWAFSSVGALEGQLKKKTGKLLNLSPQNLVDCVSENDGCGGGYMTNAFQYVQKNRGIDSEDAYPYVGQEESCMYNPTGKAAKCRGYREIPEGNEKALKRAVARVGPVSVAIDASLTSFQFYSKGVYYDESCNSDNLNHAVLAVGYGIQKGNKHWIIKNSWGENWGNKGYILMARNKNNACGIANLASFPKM
# Procedure: The following solutions and buffers were employed: • HBS (for 40 ml): 800 μl M HEPES; 2.16 ml 100 mM KCl; 4.8 ml 1M NaCl; 3.59 ml 5% glucose; 60 μl μM MgSO4; 400 μl 100 mM Na pyruvate, 28.19 ml water; pH 7.2-7.5. • lysis buffer (for 20 ml): 400 μl M Tris pH 8.2; 2.74 ml 1M NaCl; 520 μl 0.5M EDTA; 2 ml 10% triton X-100; 0.8 ml (=1:25) CompletePlus (1 tablet/2 ml H2O); 200 μl 100 mM Pefabloc; 13.34 ml water, pH 8.2. • TBST (10×) (for 1 l): 100 mM Tris (12.1 g); 1.5M NaCl (87 g); 1% Tween 20 (10 g), adjusted to pH 8. I Enzyme Inhibition In Vitro: • Testing for blockade of the corresponding enzymic activities was carried out by means of kinetic fluorescence assays (excitation 390 nm, emission 460 nm). • Apparent Ki values were calculated from the experimentally determined IC50 values by the Cheng-Prussoff relation assuming a reversible competitive enzyme inhibition. The Km values of the substrates used under the assay conditions indicated above were: 90 μM (Z-Phe-Arg-AMC, cathepsin B), 10 μM (Z-Gly-Pro-Arg-AMC, cathepsin K), 2 μM (Z-Phe-Arg-AMC, cathepsin L), and 30 μM (Z-Val-Val-Arg-AMC, cathepsin S). • The indicated Ki values are averages of the inhibition constants calculated on the basis of 2 to 4 independent dose-effect plots.
# The following assays were used: • 1. Calpain I: • 20 nM calpain-I—isolated from human erythrocytes (Calbiochem #208713), 100 μM Suc-Leu-Tyr-AMC (Bachem #1-1355) as substrate in buffer with 62 mM imidazole, 0.3 mM CaCl2, 0.10% CHAPS, 0.05% BSA, 1 mM DTT at pH 7.3 and room temperature. • 2. Cathepsin B: • 0.25 nM cathepsin B—isolated from human liver (Calbiochem #219362), 100 μM Z-Phe-Arg-AMC (Bachem #I-1160) as substrate 50 mM MES, 2 mM EDTA, 0.05% Brij 35, 2.5 mM L-cysteine, pH 6.0, room temperature. • 3. Cathepsin K: • 3 nM cathepsin K—activated from recombinant human procathepsin K from E. coli (Calbiochem #342001), 10 μM Z-Gly-Pro-Arg-AMC (Biomol #P-142) as substrate in 50 mM MES, 2 mM EDTA, 0.05% Brij 35, 2.5 mM L-cysteine, pH 6.0, room temperature. • 4. Cathepsin L: • 1 nM cathepsin L—isolated from human liver (Calbiochem #219402), 2 μM Z-Phe-Arg-AMC (Bachem #1-1160) as substrate in 50 mM MES, 2 mM EDTA, 0.05% Brij 35, 2.5 mM L-cysteine, pH 6.0, room temperature. • 5. Cathepsin S: • 0.5 nM recombinant human cathepsin S from E. coli (Calbiochem #219343), 20 μM Z-Val-Val-Arg-AMC (Bachem #1-1540) as substrate in 50 mM MES, 2 mM EDTA, 0.05% Brij 35, 2.5 mM L-cysteine, pH 6.0, room temperature. • The results of the in vitro determination are indicated in Table 1. The following abbreviations are used in Table 1: • The “Calpain activity” column, ++ stands for a calpain Ki (Ki(calpain)) of ≦40 nM and + means: 40 nM<Ki(Calpain)≦100 nM. • The “Sel. cat. B” column indicates the Ki(cathepsin B)/Ki(calpain) ratio. In this connection, ++ means a Ki(cathepsin B)/Ki(calpain) ratio of ≧30 and + means 10≦Ki(cathepsin B)/Ki(calpain)<30. • The “Sel. cat. K” column indicates the Ki(cathepsin K)/Ki(calpain) ratio. In this connection, ++ means a Ki(cathepsin K)/Ki(calpain) ratio of ≧30 and + means 10≦Ki(cathepsin K)/Ki(calpain)<30. • The “Sel. cat. L” column indicates the Ki(cathepsin L)/Ki(calpain) ratio. In this connection, ++ means a Ki(cathepsin L)/Ki(calpain) ratio of ≧50 and + means 30≦Ki(cathepsin L)/Ki(calpain)<50. • The “Sel. cat. S” column indicates the Ki(cathepsin S)/Ki(calpain) ratio. In this connection, ++ means a Ki(cathepsin S)/Ki(calpain) ratio of ≧100 and + means 50≦Ki(cathepsin S)/Ki(calpain)<100.
# [4] = biological target: T4, cathepsin L isolated from human liver (Homo sapiens, UniProt P07711); test: Cathepsin L kinetic fluorescence enzyme inhibition assay; conditions: selectivity ratio versus calpain I
# T4 construct: cathepsin L—isolated from human liver; purchased Calbiochem 219402; host or cells: human liver (tissue isolate)
# T4 sequence (P07711 114-333): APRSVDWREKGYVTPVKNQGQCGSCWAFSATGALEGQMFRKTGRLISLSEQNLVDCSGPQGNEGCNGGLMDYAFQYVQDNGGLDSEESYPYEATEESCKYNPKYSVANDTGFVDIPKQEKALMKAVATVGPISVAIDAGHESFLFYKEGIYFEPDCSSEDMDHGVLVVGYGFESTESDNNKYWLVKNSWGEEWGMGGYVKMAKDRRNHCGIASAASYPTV
# Summary of the method: as §1
# [5] = biological target: T5, recombinant human cathepsin S (Homo sapiens, UniProt P25774); test: Cathepsin S kinetic fluorescence enzyme inhibition assay; conditions: selectivity ratio versus calpain I
# T5 construct: purchased Calbiochem 219343; host or cells: E. coli
# T5 sequence (P25774 115-331): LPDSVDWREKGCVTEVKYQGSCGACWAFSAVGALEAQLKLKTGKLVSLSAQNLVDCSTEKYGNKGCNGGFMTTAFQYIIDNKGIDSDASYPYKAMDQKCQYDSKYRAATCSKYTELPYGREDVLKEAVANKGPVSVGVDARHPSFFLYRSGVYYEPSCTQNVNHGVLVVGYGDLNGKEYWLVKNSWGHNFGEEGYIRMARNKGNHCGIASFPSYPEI
# Summary of the method: as §1
Molecule,Ki [1],Sel cat. B (Ki(cathepsin B)/Ki(calpain) ratio) [2],Sel cat. K (Ki(cathepsin K)/Ki(calpain) ratio) [3],Sel cat. L (Ki(cathepsin L)/Ki(calpain) ratio) [4],Sel cat. S (Ki(cathepsin S)/Ki(calpain) ratio) [5]
"Cc1c(Cl)ccc2c1-c1nn(-c3ncccc3C(=O)NC(Cc3ccccc3)C(=O)C(N)=O)cc1CO2 (stereo not drawn) [Example 143, N-[3-Amino-2,3-dioxo-1-(phenylmethyl)propyl]-2-(8-chloro-9-methylchromeno[4,3-c]pyrazol-2(4H)-yl)pyridine-3-carboxamide]",40 to 100 nM,++ (Ki(cathepsin B)/Ki(calpain) ratio of ≧30),++ (Ki(cathepsin K)/Ki(calpain) ratio of ≧30),++ (Ki(cathepsin L)/Ki(calpain) ratio of ≧50),++ (Ki(cathepsin S)/Ki(calpain) ratio of ≧100)
"COc1ccc(-c2ccn(-c3ncccc3C(=O)NC(Cc3ccccc3)C(=O)C(N)=O)n2)cc1 (stereo not drawn) [Example 48, N-(3-Amino-1-benzyl-2,3-dioxopropyl)-2-[3-(4-methoxyphenyl)-1H-pyrazol-1-yl]nicotinamide]",40 to 100 nM,+ (10≦Ki(cathepsin B)/Ki(calpain)<30),+ (10≦Ki(cathepsin K)/Ki(calpain)<30),++ (Ki(cathepsin L)/Ki(calpain) ratio of ≧50),++ (Ki(cathepsin S)/Ki(calpain) ratio of ≧100)
"NC(=O)C(=O)C(Cc1ccc(Cl)cc1)NC(=O)c1cccnc1-n1ccc(-c2ccc(F)cc2)n1 (stereo not drawn) [Example 67, N-[3-Amino-1-(4-chlorobenzyl)-2,3-dioxopropyl]-2-[3-(4-fluorophenyl)-1H-pyrazol-1-yl]nicotinamide]",40 to 100 nM,+ (10≦Ki(cathepsin B)/Ki(calpain)<30),+ (10≦Ki(cathepsin K)/Ki(calpain)<30),++ (Ki(cathepsin L)/Ki(calpain) ratio of ≧50),++ (Ki(cathepsin S)/Ki(calpain) ratio of ≧100)
"N-{3-Amino-1-[(4-fluorophenyl)methyl]-2,3-dioxopropyl}-2-[3-(2-chloro-3-fluorophenyl)-1H-pyrazol-1-yl]pyridine-3-carboxamide [Example 154]",,++ (Ki(cathepsin B)/Ki(calpain) ratio of ≧30),++ (Ki(cathepsin K)/Ki(calpain) ratio of ≧30),++ (Ki(cathepsin L)/Ki(calpain) ratio of ≧50),++ (Ki(cathepsin S)/Ki(calpain) ratio of ≧100)
"NC(=O)C(=O)C(Cc1ccc(OC(F)(F)F)cc1)NC(=O)c1cccnc1-n1ccc(-c2cccc(C(F)(F)F)c2)n1 (stereo not drawn) [Example 134, N-[3-Amino-2,3-dioxo-1-({4-[(trifluoromethyl)oxy]phenyl}methyl)propyl]-2-{3-[3-(trifluoromethyl)phenyl]-1H-pyrazol-1-yl}pyridine-3-carboxamide]",,++ (Ki(cathepsin B)/Ki(calpain) ratio of ≧30),++ (Ki(cathepsin K)/Ki(calpain) ratio of ≧30),+ (30≦Ki(cathepsin L)/Ki(calpain)<50),+ (50≦Ki(cathepsin S)/Ki(calpain)<100)

# The next lines start with results.
Ki [1],Molecule,Sel cat. B (Ki(cathepsin B)/Ki(calpain) ratio) [2],Sel cat. K (Ki(cathepsin K)/Ki(calpain) ratio) [3],Sel cat. L (Ki(cathepsin L)/Ki(calpain) ratio) [4],Sel cat. S (Ki(cathepsin S)/Ki(calpain) ratio) [5]
40 to 100 nM,"NC(=O)C(=O)C(Cc1ccc(OC(F)(F)F)cc1)NC(=O)c1cccnc1-n1ccc(-c2ccc(F)cc2)n1 (stereo not drawn) [Example 132, N-[3-Amino-2,3-dioxo-1-({4-[(trifluoromethyl)oxy]phenyl}methyl)propyl]-2-[3-(4-fluorophenyl)-1H-pyrazol-1-yl]pyridine-3-carboxamide]",+ (10≦Ki(cathepsin B)/Ki(calpain)<30),++ (Ki(cathepsin K)/Ki(calpain) ratio of ≧30),++ (Ki(cathepsin L)/Ki(calpain) ratio of ≧50),++ (Ki(cathepsin S)/Ki(calpain) ratio of ≧100)
≤ 40 nM,"NC(=O)C(=O)C(Cc1ccccc1)NC(=O)c1cccnc1-n1ccc(-c2ccccc2OC(F)(F)F)n1 (stereo not drawn) [Example 124, N-[3-Amino-2,3-dioxo-1-(phenylmethyl)propyl]-2-(3-{2-[(trifluoromethyl)oxy]phenyl}-1H-pyrazol-1-yl)pyridine-3-carboxamide]",++ (Ki(cathepsin B)/Ki(calpain) ratio of ≧30),++ (Ki(cathepsin K)/Ki(calpain) ratio of ≧30),++ (Ki(cathepsin L)/Ki(calpain) ratio of ≧50),++ (Ki(cathepsin S)/Ki(calpain) ratio of ≧100)
